In one assay the target is CK2α (Homo sapiens, UniProt P68400). Description: ADP-Glo kinase assay, CK2 inhibition. In kind it is biochemical. The settings on record: for inhibition at 256 µM: 256 μM compound; for inhibition at 1024 µM: 1024 μM compound, read-out: inhibition rate at 1024 μM. On the procedure: In vitro CK2 kinase inhibition assay were carried out for the six compounds using ADP-Glo^TM kinase assay. […] As indicated in Table 1 and Figure 5a, these compounds presented the inhibitory effect on CK2α activity to different extent. At the concentration of 16 μM, compound 3 inhibited nearly 50% of CK2α activity. However, at the same concentration, other compounds had only 20% inhibitory activity. Furthermore, except compound 2 and 6, the inhibition rates of these compounds were about 70% and 30% at 256 μM, respectively, with the dose-dependent manner. The ADP-Glo^TM Kinase Assay (Promega, Madison, WI, USA) was used to test the CK2 inhibition effects of these compounds [30, 31]. As indicated by the relevant studies, competitive and noncompetitive inhibitors show the increased and similar IC50 values with increasing concentrations of ATP, respectively. Therefore, we were able to distinguish between ATP competitive and noncompetitive inhibitors of CK2 by exploring whether the IC50 value of inhibitors will change or not at 10 and 100 μM ATP. The kinase reaction was performed in 25 μL mixture containing 10 ng casein kinase 2α, 0.1 µg/μL casein protein, 10 µM or 100 µM ATP, 1× reaction buffer and serially diluted fragments (or DMSO for control). After 60 min incubation at room temperature, 25 μL of ADP-Glo^TM Reagent was added to terminate the kinase reaction and deplete the remaining ATP. Then 50 μL Kinase Detection Reagent was added to convert ADP to ATP within 30 min, and allow the newly synthesized ATP to produce a luminescence signal using luciferase/luciferin reaction, which was recorded by the luminescence panel of Microplate Reader (Enspire2300-001A, Perkin Elmer, Waltham, MA, USA).The luminescent signal is proportional to the ADP concentration produced and correlated with the kinase activity.
CK2α, sequence (P68400 whole entry): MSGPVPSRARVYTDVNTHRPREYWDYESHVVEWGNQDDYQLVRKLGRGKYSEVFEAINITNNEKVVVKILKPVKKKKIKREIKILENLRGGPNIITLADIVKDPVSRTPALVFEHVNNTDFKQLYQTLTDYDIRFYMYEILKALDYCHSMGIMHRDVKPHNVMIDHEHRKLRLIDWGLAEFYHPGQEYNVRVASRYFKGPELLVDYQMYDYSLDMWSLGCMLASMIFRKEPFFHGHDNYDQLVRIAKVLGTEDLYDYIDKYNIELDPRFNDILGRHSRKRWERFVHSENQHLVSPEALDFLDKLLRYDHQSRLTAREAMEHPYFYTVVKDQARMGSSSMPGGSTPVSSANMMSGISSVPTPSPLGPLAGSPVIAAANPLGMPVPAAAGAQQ
(In ADP-Glo the light output rises with the ADP produced.)

The next assay deals with A549 cancer cells. The assay can be described thus: CCK-8 cell proliferation assay, A549. In kind it is cell-based. The following applies: Homo sapiens, A549, 48 h treatment, read-out: IC50, inhibition of A549 cell proliferation. On the procedure:
With the aim of investigating the anti-cancer cell proliferative activity of the CK2 inhibitors, compound 3 and 4 was tested against human cancer cell lines based on Cell Counting Kit-8 (CCK-8) assay. […] We presumed that the functional uracil group of two compounds, which is also presented in the anti-cancer hits 5-fluorouracil, is essential and indispensable for anti-cancer activity.
Cell Counting Kit-8 (CCK-8 Dojindo Laboratories, Kyushu, Japan) assays was used to assess the cytotoxic activities of compound 3 and 4. A549 and HeLa cancer cells were seeded in 96-well flat-bottom culture plate at 2 × 10^4 cells/well and then cultured in an incubator of 5% CO2 and 37 °C for 24 h. After cells adherence, the cells were treated with targeted compounds at various concentrations for 48 h. Blank wells (containing culture medium only) and negative wells (untreated cells) served as controls. Following, 10 μL CCK-8 solutions was add to each well and incubated for 2 h at 37 °C, the absorbance was measured at 450 nm by using a microplate reader (Enspire 2300-001A, Perkin Elmer, Waltham, MA, USA).

The mark [1] stands for this setting: concentration-response, 10 μM ATP where stated, read-out: IC50 against CK2α.

pIC50: −log10 of the molar value. Where two headings read alike, the source gives them in different places. A value given as a limit tells only on which side of the number the result lay.

The term inhibition denotes the change of the read-out against control, counted positive when it falls. In general, %Inhibition refers to the drop in the measured response relative to a control, in per cent. High values mean a response far below the control, low ones a response near the control.

`COc1ccc(C(=O)Nc2ccc(C(N)=O)cc2)cc1Br` [Compound 1] gave an inhibition at 16 µM at CK2α (16 μM compound) of 14%. Moreover, the inhibition at 256 µM against CK2α was 27%.
Regarding `COc1ccc(C(=O)Nc2ccc3[nH]c(=O)[nH]c3c2)cc1Br` [Compound 2], 16 µM produced 16% inhibition against CK2α (16 μM compound). The inhibition at 256 µM at CK2α was found to be 19%.
The compound `Cc1ccc(C(=O)Nc2c[nH]c(=O)[nH]c2=O)cc1C` [Compound 3] gave an inhibition at 16 µM at CK2α (16 μM compound) of about 50%. Also, the “%Inhibition at 16 μM” value on CK2α (16 μM compound, 16 µM) turned out to be 52%. For the same compound, at CK2α (64 μM compound), the inhibition at 64 µM was over 50%. Further, the pIC50 at CK2α (100 μM ATP, read-out: IC50 against CK2α in the presence of 100 μM ATP) was 4.99; on CK2α (setting [1]), 4.89; in the assay on A549 cancer cells it was 4.64. Also, the inhibition at 256 µM on CK2α worked out at 72%. At CK2α (IC50 compared at 10 μM and 100 μM ATP), the “mode of inhibition with respect to ATP” value is reported as “non-ATP competitive”.
The compound `O=C(Cc1cccc2ccccc12)Nc1c[nH]c(=O)[nH]c1=O` [Compound 4] came in with an inhibition at 16 µM at CK2α (16 μM compound) of 22%. At CK2α, this compound had an inhibition at 256 µM of 40%. The results for the pIC50 at CK2α (setting [1]) and in the assay with A549 cancer cells were at least 2.99 and 5.06, respectively.
On to `Cc1c(Cl)cccc1NC(=O)CC1NCCNC1=O` (stereo not shown) [Compound 5], for which at 16 µM the inhibition at CK2α (16 μM compound) was 16%. Also, at CK2α, at 256 µM the inhibition was 29% and the inhibition at 1024 µM is under 50%.
The like results for `Nc1cc(=O)nc(SCc2ccccc2Cl)[nH]1` [Compound 6] were, in that order, 12%, 18% and under 50%.

Source of the values: paper PMC6983002, “Identification and Biological Evaluation of CK2 Allosteric Fragments through Structure-Based Virtual Screening” (Molecules, 2020).
